Measured values: paper PMC3399817 (PLoS ONE, 2012)

Columns and labels:
Experiment in all cases: KINOMEscan
Format in all cases: binding
FLT3(D835H) = biological target: T1, FLT3(D835H) (Homo sapiens, UniProt P36888, D835H); details: 1 uM
T1 construct: purchased Ambit KINOMEscan (DiscoverX)
Description: (§1) First, we used Ambit's KINOMEscan™ technology to identify those kinases that are inhibited for substrate binding by the compounds, all assayed at 1 μM. Second, we used Invitrogen's SelectScreen® Biochemical Kinase Profiling Service to determine the in vitro IC50s for the compounds against specific kinases.

ADCK4 = biological target: T2, ADCK4 (Homo sapiens, UniProt Q96D53); details: ADCK4, 1 uM
T2 construct: purchased Ambit KINOMEscan (DiscoverX)
Description: as §1

CAMK1G = biological target: T3, CAMK1G (Homo sapiens, UniProt Q96NX5); details: 1 uM
T3 construct: purchased Ambit KINOMEscan (DiscoverX)
Description: as §1

GRK1 = biological target: T4, GRK1 (Homo sapiens, UniProt Q15835); details: GRK1, 1 uM
T4 construct: purchased Ambit KINOMEscan (DiscoverX)
Description: as §1

ANKK1 = biological target: T5, ANKK1 (Homo sapiens, UniProt Q8NFD2); details: ANKK1, 1 uM
T5 construct: purchased Ambit KINOMEscan (DiscoverX)
Description: as §1

ACVRL1 = biological target: T6, ACVRL1 (Homo sapiens, UniProt P37023); details: ACVRL1, 1 uM
T6 construct: purchased Ambit KINOMEscan (DiscoverX)
Description: as §1

ULK3 = biological target: T7, ULK3 (Homo sapiens, UniProt Q6PHR2); details: ULK3, 1 uM
T7 construct: purchased Ambit KINOMEscan (DiscoverX)
Description: as §1

CLK2 = biological target: T8, CLK2 (Homo sapiens, UniProt P49760); details: CLK2, 1 uM
T8 construct: purchased Ambit KINOMEscan (DiscoverX)
Description: as §1

[1] = biological target: T9, JAK2(JH1domain-catalytic) (Homo sapiens, UniProt O60674); details: 1 uM
T9 construct: JAK2(JH1domain-catalytic); purchased Ambit KINOMEscan (DiscoverX)
Description: as §1

MARK1 = biological target: T10, MARK1 (Homo sapiens, UniProt Q9P0L2); details: MARK1, 1 uM
T10 construct: purchased Ambit KINOMEscan (DiscoverX)
Description: as §1

MLCK = biological target: T11, MLCK (Homo sapiens, UniProt Q32MK0); details: 1 uM
T11 construct: purchased Ambit KINOMEscan (DiscoverX)
Description: as §1

PRKCH = biological target: T12, PRKCH (Homo sapiens, UniProt P24723); details: 1 uM
T12 construct: purchased Ambit KINOMEscan (DiscoverX)
Description: as §1

MLK3 = biological target: T13, MLK3 (Homo sapiens, UniProt Q16584); details: MLK3, 1 uM
T13 construct: purchased Ambit KINOMEscan (DiscoverX)
Description: as §1

AURKC = biological target: T14, AURKC (Homo sapiens, UniProt Q9UQB9); details: 1 uM
T14 construct: purchased Ambit KINOMEscan (DiscoverX)
Description: as §1

EPHA1 = biological target: T15, EPHA1 (Homo sapiens, UniProt P21709); details: EPHA1, 1 uM
T15 construct: purchased Ambit KINOMEscan (DiscoverX)
Description: as §1

LKB1 = biological target: T16, LKB1 (Homo sapiens, UniProt Q15831); details: LKB1, 1 uM
T16 construct: purchased Ambit KINOMEscan (DiscoverX)
Description: as §1

EPHB3 = biological target: T17, EPHB3 (Homo sapiens, UniProt P54753); details: EPHB3, 1 uM
T17 construct: purchased Ambit KINOMEscan (DiscoverX)
Description: as §1

LIMK1 = biological target: T18, LIMK1 (Homo sapiens, UniProt P53667); details: LIMK1, 1 uM
T18 construct: purchased Ambit KINOMEscan (DiscoverX)
Description: as §1

MST3 = biological target: T19, MST3 (Homo sapiens, UniProt Q9Y6E0); details: MST3, 1 uM
T19 construct: purchased Ambit KINOMEscan (DiscoverX)
Description: as §1

PRKG2 = biological target: T20, PRKG2 (Homo sapiens, UniProt Q13237); details: PRKG2, 1 uM
T20 construct: purchased Ambit KINOMEscan (DiscoverX)
Description: as §1

PIK3CB = biological target: T21, PIK3CB (Homo sapiens, UniProt P42338); details: 1 uM
T21 construct: purchased Ambit KINOMEscan (DiscoverX)
Description: as §1

PAK2 = biological target: T22, PAK2 (Homo sapiens, UniProt Q13177); details: PAK2, 1 uM
T22 construct: purchased Ambit KINOMEscan (DiscoverX)
Description: as §1

MET = biological target: T23, MET (Homo sapiens, UniProt P08581); details: 1 uM
T23 construct: purchased Ambit KINOMEscan (DiscoverX)
Description: as §1

[2] = biological target: T24, RPS6KA1(Kin.Dom.1-N-terminal) (Homo sapiens, UniProt Q15418); details: 1 uM
T24 construct: RPS6KA1(Kin.Dom.1-N-terminal); purchased Ambit KINOMEscan (DiscoverX)
Description: as §1

FLT3(N841I) = biological target: T25, FLT3(N841I) (Homo sapiens, UniProt P36888, N841I); details: 1 uM
T25 construct: purchased Ambit KINOMEscan (DiscoverX)
Description: as §1

[3] = biological target: T26, RPS6KA4(Kin.Dom.1-N-terminal) (Homo sapiens, UniProt O75676); details: 1 uM
T26 construct: RPS6KA4(Kin.Dom.1-N-terminal); purchased Ambit KINOMEscan (DiscoverX)
Description: as §1

PIK3CA(E545A) = biological target: T27, PIK3CA(E545A) (Homo sapiens, UniProt P42336, E545A); details: 1 uM
T27 construct: purchased Ambit KINOMEscan (DiscoverX)
Description: as §1

DLK = biological target: T28, DLK (Homo sapiens, UniProt Q12852); details: 1 uM
T28 construct: purchased Ambit KINOMEscan (DiscoverX)
Description: as §1

GCN2(Kin.Dom.2,S808G) = biological target: T29, GCN2(Kin.Dom.2,S808G) (Homo sapiens, UniProt Q9P2K8, S808G); details: 1 uM
T29 construct: GCN2(Kin.Dom.2,S808G); purchased Ambit KINOMEscan (DiscoverX)
Description: as §1

MAP3K2 = biological target: T30, MAP3K2 (Homo sapiens, UniProt Q9Y2U5); details: MAP3K2, 1 uM
T30 construct: purchased Ambit KINOMEscan (DiscoverX)
Description: as §1

CDKL3 = biological target: T31, CDKL3 (Homo sapiens, UniProt Q8IVW4); details: CDKL3, 1 uM
T31 construct: purchased Ambit KINOMEscan (DiscoverX)
Description: as §1

CHEK1 = biological target: T32, CHEK1 (Homo sapiens, UniProt O14757); details: CHEK1, 1 uM
T32 construct: purchased Ambit KINOMEscan (DiscoverX)
Description: as §1

[4] = biological target: T33, JAK1(JH1domain-catalytic) (Homo sapiens, UniProt P23458); details: 1 uM
T33 construct: JAK1(JH1domain-catalytic); purchased Ambit KINOMEscan (DiscoverX)
Description: as §1

CAMK4 = biological target: T34, CAMK4 (Homo sapiens, UniProt Q16566); details: CAMK4, 1 uM
T34 construct: purchased Ambit KINOMEscan (DiscoverX)
Description: as §1

CAMK1 = biological target: T35, CAMK1 (Homo sapiens, UniProt Q14012); details: CAMK1, 1 uM
T35 construct: purchased Ambit KINOMEscan (DiscoverX)
Description: as §1

STK33 = biological target: T36, STK33 (Homo sapiens, UniProt Q9BYT3); details: STK33, 1 uM
T36 construct: purchased Ambit KINOMEscan (DiscoverX)
Description: as §1

[5] = biological target: T37, ABL1(M351T)-phosphorylated (Homo sapiens, UniProt P00519, M351T); details: 1 uM
T37 construct: purchased Ambit KINOMEscan (DiscoverX)
Description: as §1

T11 sequence (Q32MK0 whole entry): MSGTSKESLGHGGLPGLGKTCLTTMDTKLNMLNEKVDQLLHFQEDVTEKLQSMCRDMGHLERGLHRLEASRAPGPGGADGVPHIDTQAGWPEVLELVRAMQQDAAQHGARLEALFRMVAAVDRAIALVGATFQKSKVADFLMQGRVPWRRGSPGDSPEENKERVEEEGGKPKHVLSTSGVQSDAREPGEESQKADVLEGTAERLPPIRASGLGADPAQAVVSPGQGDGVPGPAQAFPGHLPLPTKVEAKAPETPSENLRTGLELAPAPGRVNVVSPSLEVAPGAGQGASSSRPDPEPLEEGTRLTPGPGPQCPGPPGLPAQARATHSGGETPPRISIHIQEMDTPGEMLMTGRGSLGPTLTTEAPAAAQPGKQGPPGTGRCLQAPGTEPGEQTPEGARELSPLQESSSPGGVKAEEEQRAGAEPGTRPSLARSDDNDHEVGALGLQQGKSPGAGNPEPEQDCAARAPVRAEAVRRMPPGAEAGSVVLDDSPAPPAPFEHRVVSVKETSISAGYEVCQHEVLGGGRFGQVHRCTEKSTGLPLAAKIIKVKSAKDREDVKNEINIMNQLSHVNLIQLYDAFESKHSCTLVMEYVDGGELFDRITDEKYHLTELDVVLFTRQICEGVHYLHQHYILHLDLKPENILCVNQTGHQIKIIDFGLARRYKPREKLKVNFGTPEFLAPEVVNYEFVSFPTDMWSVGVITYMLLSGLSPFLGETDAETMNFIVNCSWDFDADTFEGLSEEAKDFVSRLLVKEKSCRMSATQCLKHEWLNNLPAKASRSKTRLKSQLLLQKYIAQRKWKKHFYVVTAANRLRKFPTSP
T7 sequence (Q6PHR2 whole entry): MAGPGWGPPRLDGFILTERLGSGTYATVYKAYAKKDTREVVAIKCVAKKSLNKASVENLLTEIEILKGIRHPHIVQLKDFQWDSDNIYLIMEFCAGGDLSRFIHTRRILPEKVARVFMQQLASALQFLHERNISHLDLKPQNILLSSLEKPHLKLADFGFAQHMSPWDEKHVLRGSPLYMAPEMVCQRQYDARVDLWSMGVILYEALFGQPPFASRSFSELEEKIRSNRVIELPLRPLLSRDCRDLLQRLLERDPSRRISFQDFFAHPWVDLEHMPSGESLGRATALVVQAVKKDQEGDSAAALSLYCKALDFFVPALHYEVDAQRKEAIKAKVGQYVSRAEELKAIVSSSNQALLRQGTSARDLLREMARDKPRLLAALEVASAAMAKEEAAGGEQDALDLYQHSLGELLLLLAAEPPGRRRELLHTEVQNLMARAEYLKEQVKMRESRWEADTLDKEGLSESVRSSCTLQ
T23 sequence (P08581 25-1390): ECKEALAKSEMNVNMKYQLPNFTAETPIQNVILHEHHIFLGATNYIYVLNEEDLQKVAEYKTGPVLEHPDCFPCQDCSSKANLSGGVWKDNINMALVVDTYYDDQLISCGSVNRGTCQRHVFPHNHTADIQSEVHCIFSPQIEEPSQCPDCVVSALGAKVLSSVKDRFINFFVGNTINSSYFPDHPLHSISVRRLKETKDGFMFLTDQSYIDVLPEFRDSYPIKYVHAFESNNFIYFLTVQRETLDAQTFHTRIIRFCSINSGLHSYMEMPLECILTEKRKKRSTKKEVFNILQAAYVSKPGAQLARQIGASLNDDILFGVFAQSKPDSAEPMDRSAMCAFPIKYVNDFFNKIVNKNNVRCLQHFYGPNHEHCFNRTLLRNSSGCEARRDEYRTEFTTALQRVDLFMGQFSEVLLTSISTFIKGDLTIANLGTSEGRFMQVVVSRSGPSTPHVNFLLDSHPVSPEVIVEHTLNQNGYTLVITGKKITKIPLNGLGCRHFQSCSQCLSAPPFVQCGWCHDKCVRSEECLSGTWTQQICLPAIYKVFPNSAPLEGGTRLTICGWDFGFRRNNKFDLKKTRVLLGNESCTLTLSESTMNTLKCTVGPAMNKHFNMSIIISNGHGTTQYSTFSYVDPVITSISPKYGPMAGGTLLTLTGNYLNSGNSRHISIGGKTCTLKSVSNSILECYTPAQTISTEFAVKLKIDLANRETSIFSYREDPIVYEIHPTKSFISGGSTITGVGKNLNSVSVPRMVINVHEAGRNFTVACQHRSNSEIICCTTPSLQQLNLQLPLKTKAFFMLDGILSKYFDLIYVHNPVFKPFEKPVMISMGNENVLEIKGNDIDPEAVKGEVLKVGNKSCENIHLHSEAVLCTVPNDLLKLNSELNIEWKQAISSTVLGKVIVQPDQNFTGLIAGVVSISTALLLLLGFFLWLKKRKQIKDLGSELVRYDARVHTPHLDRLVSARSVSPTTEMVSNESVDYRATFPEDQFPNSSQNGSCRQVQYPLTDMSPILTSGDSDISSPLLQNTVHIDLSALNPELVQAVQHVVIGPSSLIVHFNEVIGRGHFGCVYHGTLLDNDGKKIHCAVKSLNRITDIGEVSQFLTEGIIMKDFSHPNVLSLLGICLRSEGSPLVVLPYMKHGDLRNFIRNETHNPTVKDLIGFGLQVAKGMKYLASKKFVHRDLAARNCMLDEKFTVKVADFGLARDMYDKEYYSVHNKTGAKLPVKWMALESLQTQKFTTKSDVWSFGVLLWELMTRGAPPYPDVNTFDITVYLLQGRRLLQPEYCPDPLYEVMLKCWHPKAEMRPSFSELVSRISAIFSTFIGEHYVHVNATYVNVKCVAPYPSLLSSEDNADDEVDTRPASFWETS
T29 sequence (Q9P2K8 590-1001 S808G limits assumed): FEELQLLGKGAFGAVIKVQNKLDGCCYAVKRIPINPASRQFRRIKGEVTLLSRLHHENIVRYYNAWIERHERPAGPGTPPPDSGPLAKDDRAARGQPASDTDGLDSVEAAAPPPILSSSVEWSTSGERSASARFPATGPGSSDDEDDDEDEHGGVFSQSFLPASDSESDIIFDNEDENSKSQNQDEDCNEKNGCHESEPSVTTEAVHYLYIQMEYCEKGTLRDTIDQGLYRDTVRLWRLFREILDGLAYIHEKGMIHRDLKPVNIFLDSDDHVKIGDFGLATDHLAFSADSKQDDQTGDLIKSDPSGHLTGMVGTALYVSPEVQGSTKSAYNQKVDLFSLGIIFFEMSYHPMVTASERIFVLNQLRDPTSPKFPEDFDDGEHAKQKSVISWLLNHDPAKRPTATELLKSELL
T16 sequence (Q15831 whole entry): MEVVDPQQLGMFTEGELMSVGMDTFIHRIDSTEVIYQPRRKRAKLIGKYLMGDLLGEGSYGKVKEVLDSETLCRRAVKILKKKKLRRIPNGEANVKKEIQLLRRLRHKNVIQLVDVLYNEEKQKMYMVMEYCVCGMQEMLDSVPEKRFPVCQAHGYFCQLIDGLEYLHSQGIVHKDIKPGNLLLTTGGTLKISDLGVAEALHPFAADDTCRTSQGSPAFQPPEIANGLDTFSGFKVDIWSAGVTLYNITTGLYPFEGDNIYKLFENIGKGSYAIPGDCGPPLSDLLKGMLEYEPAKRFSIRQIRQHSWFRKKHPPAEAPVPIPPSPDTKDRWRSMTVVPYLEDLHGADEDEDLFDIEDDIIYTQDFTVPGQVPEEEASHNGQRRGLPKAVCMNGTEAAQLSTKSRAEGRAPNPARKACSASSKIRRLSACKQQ
T32 sequence (O14757 whole entry): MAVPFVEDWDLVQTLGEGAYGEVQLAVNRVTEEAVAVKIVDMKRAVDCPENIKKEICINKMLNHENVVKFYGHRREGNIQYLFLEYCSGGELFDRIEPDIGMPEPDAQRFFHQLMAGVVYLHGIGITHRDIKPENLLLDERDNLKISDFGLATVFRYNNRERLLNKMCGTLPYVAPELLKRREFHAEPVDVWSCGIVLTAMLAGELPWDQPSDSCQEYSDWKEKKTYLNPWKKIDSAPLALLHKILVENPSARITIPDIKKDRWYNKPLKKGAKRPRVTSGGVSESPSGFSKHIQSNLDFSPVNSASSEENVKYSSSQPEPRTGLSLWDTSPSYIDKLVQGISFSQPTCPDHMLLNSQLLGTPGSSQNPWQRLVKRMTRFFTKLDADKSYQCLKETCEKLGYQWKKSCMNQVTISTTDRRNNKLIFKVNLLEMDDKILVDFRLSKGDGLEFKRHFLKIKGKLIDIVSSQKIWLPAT
T9 sequence (O60674 849-1132 limits assumed): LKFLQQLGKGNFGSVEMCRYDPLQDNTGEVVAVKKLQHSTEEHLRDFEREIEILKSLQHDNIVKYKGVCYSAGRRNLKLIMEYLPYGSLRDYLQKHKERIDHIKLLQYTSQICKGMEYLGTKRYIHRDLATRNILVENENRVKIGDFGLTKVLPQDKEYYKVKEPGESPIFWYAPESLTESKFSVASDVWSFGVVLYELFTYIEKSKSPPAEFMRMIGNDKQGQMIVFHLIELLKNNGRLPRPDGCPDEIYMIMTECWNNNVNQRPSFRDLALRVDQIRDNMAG
T22 sequence (Q13177 whole entry): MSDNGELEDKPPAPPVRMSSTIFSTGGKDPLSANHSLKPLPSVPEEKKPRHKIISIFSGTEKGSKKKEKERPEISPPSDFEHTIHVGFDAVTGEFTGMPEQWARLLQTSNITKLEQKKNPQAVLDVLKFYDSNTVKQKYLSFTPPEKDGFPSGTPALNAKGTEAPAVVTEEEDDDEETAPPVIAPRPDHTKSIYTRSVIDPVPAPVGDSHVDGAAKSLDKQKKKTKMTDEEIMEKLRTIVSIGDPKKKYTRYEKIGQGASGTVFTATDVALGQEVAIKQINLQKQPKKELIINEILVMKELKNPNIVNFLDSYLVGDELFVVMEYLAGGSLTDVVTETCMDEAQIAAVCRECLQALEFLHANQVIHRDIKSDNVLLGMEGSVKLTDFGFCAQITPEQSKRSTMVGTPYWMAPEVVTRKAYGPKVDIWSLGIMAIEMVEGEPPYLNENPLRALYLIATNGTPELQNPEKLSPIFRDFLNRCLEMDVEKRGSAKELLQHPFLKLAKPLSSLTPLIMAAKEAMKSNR

Row | SMILES | % binding compared to no inhibitor control (FLT3(D835H)) | % binding compared to no inhibitor control (ADCK4) | % binding compared to no inhibitor control (CAMK1G) | % binding compared to no inhibitor control (GRK1) | % binding compared to no inhibitor control (ANKK1) | % binding compared to no inhibitor control (ACVRL1) | % binding compared to no inhibitor control (ULK3) | % binding compared to no inhibitor control (CLK2) | % binding compared to no inhibitor control [1] | % binding compared to no inhibitor control (MARK1) | % binding compared to no inhibitor control (MLCK) | % binding compared to no inhibitor control (PRKCH) | % binding compared to no inhibitor control (MLK3) | % binding compared to no inhibitor control (AURKC) | % binding compared to no inhibitor control (EPHA1) | % binding compared to no inhibitor control (LKB1) | % binding compared to no inhibitor control (EPHB3) | % binding compared to no inhibitor control (LIMK1) | % binding compared to no inhibitor control (MST3) | % binding compared to no inhibitor control (PRKG2) | also measured
1 | COc1ccc(-c2cc3nccn3c(Nc3ncccc3C(N)=O)n2)cc1OC.Cl.Cl [BAY61-3606, 2-[7-(3,4-dimethoxyphenyl)-imidazo [1,2-c]pyrimidin-5-ylamino] nicotinamide dihydrochloride, reference compound] | 7.9% | 9.9% | 82% | 65% | 21% | 100% | 51% | 12% | 90% | 100% | 100% | 58% | 77% | 92% | 81% | 95% | 98% | 100% | 56% | 70% | % binding compared to no inhibitor control (PIK3CB): 92%; % binding compared to no inhibitor control (PAK2): 80%; % binding compared to no inhibitor control (MET): 100%; % binding compared to no inhibitor control [2]: 96%; % binding compared to no inhibitor control (FLT3(N841I)): 1.5%; % binding compared to no inhibitor control [3]: 32%; % binding compared to no inhibitor control (PIK3CA(E545A)): 90%; % binding compared to no inhibitor control (DLK): 87%; % binding compared to no inhibitor control (GCN2(Kin.Dom.2,S808G)): 54%; % binding compared to no inhibitor control (MAP3K2): 55%; % binding compared to no inhibitor control (CDKL3): 100%; % binding compared to no inhibitor control (CHEK1): 100%; % binding compared to no inhibitor control [4]: 71%; % binding compared to no inhibitor control (CAMK4): 100%; % binding compared to no inhibitor control (CAMK1): 62%; % binding compared to no inhibitor control (STK33): 87%; % binding compared to no inhibitor control [5]: 81%
2 | COc1ccccc1Nc1nc(-c2ccc(OC)c(OC)c2)cc2nccn12 [BAY derivative 6] | 42% | 69% | 98% | 100% | 100% | 100% | 100% | 63% | 13% | 100% | 100% | 100% | 100% | 100% | 81% | 72% | 84% | 91% | 100% | 100% | % binding compared to no inhibitor control (PIK3CB): 100%; % binding compared to no inhibitor control (PAK2): 76%; % binding compared to no inhibitor control (MET): 100%; % binding compared to no inhibitor control [2]: 82%; % binding compared to no inhibitor control (FLT3(N841I)): 53%; % binding compared to no inhibitor control [3]: 74%; % binding compared to no inhibitor control (PIK3CA(E545A)): 100%; % binding compared to no inhibitor control (DLK): 100%; % binding compared to no inhibitor control (GCN2(Kin.Dom.2,S808G)): 99%; % binding compared to no inhibitor control (MAP3K2): 88%; % binding compared to no inhibitor control (CDKL3): 100%; % binding compared to no inhibitor control (CHEK1): 90%; % binding compared to no inhibitor control [4]: 48%; % binding compared to no inhibitor control (CAMK4): 100%; % binding compared to no inhibitor control (CAMK1): 100%; % binding compared to no inhibitor control (STK33): 100%; % binding compared to no inhibitor control [5]: 92%
